# Reference: US20210038668A1, “TRADITIONAL CHINESE MEDICINE COMPOSITION FOR PREVENTING AND/OR TREATING ISCHEMIC REPERFUSION INJURY” (TASLY PHARMACEUTICAL GROUP CO., LTD., priority 2018, published 2021)
# What was measured:
# [1] = system: brain tissue (edema); assay: Brain tissue dry/wet weight ratio; type: in vivo, C57BL/6 mice; settings: 24 h after administration; tPA 10 mg/kg alone; T541 20 mg/kg + tPA 10 mg/kg
# Method: Brain tissue dry/wet weight ratio: after reperfused for 24 hours, mice were immediately anesthetized; the head was cut off to take brain; left and right brain was respectively weighed (denoted as wet weight). Afterwards, the brain was placed into a 60° C. drying oven for drying for 72 hours, and then weighed (denoted as dry weight). Brain tissue dry/wet weight ratio is calculated by […].
# [2] = system: VE-cadherin; assay: Western blotting of VE-cadherin, cortex of ischemic penumbra; type: in vivo, C57BL/6 mice; settings: brain tissue 24 hours after administration, sham = 1.00; tPA 10 mg/kg alone; T541 20 mg/kg + tPA 10 mg/kg
# Method: (§1) After reperfused for 24 hours, mice were perfused by normal saline; Western blotting analysis was conducted to the penumbra field of infarcted right cerebral cortex. After perfused, mice brain tissue was taken out; cerebellum and prefrontal lobe were cut off; the brain tissue of right brain close to 1 cm of the central joint of left and right hemispheres along the sagittal view; infarcted penumbra field of the rest tissues was cut off along an 45° angle; the cerebral cortex of the penumbra field was peeled off and preserved at low temperature. Right cerebral cortex was taken and added 1×RIPA lysate and a Cocktail protease inhibitor (1:100, Cell Signaling Technology, US) for full pyrolysis and ultrasonic treatment, and then 17000 g were centrifuged for 30 minutes. Supernatant was taken and added 5×loading buffer by volume, boiled for 20 minutes in boiling water, and then preserved at −80° C. Excessive supernatant was taken out and quantified by a BCA protein quantification liquor (ThermoScientific, US) to measure absorbance value at 560 nm of ELIASA and to calculate the protein concentration according to a standard curve. […] The density of electrophoretic strips was analyzed by an image analysis software Quantityone. […]
# [3] = system: VE-cadherin; assay: Western blotting of VE-cadherin, endothelial cells after hypoxia/reoxygenation; type: cell-based; settings: rat brain endothelial cells, hypoxia 4.5 h/reoxygenation 3 h; tPA 20 mcg/ml alone (model group); T541 400 mcg/ml + tPA 20 mcg/ml
# Text: (§2) Establishment of rat brain endothelial cell H/R model: rat brain endothelial cells were purchased from ATCC, and then subcultured to 5-6 generations in normal conditions for further experiment. […]
# [4] = system: JAM-1; assay: Western blotting of JAM-1, endothelial cells after hypoxia/reoxygenation; type: cell-based; settings: rat brain endothelial cells, hypoxia 4.5 h/reoxygenation 3 h; tPA 20 mcg/ml alone (model group); T541 400 mcg/ml + tPA 20 mcg/ml
# Text: as §2
# [5] = system: ATP5D; assay: ATP5D content in brain tissue; type: in vivo, C57BL/6 mice; settings: brain tissue 24 hours after administration, sham = 1.00; tPA 10 mg/kg alone; T541 20 mg/kg + tPA 10 mg/kg
# Method: as §1
# [6] = system: Bcl-2; assay: Western blotting of Bcl-2 in brain tissue; type: in vivo, C57BL/6 mice; settings: brain tissue 24 h after administration, sham = 1.00; tPA 10 mg/kg alone or + T541 20 mg/kg or ingredients at Table 7 doses
# Text: To compare the therapeutical effect on reperfusion injury caused by tPA thrombolysis between the traditional Chinese medicinal composition of the present invention and each ingredient (total saponins of Astragalus, the experiment was divided into the following group (tPA is combined with T541, individual ingredient thereof and compatibility of any two ingredients) specifically as follows: tPA+total saponins of Astragalus (tPA+HQ), tPA+ salvianolic acids (tPA+DS), tPA+Panax notoginseng saponins (tPA+SQ), tPA+ total saponins of Astragalus+salvianolic acids (tPA+HQ+DS), tPA+ total saponins of Astragalus+Panax notoginseng saponins (tPA+HQ+SQ), tPA+ salvianolic acids+Panax notoginseng saponins (tPA+DS+SQ) and tPA+T541. Normal saline served as an isovolumetric control. The usage number in each group is 6.
# After reperfused for 24 hours, mice were perfused by normal saline; Western blotting analysis was conducted to the penumbra field of infarcted right cerebral cortex. […] Excessive supernatant was taken out and quantified by a BCA protein quantification liquor (ThermoScientific, US) to measure absorbance value at 560 nm of ELIASA and to calculate the protein concentration according to a standard curve. […] The density of electrophoretic strips was analyzed by an image analysis software Quantityone. […]
substance,measurement,setting,value
tPA: tissue-type plasminogen activator (tPA) for thrombolysis,Brain dry/wet weight ratio,[1],0.801 ± 0.002
same,VE-cadherin/β-actin,[2],0.53 ± 0.07
same,VE-cadherin/β-actin,[3],0.58 ± 0.07
same,JAM-1/β-actin,[4],0.64 ± 0.05
same,ATP5D,[5],0.71 ± 0.05
same,Bcl-2,[6],1.51 ± 0.14
